Measurements published in ChEMBL document CHEMBL1201862, “PubChem BioAssay data set” (2004).
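Dose response: 5 concentrations. Exposure: 48 h. Format: 96-well plates. Endpoint: linear interpolation; highest concentration if not reached. The concentration for 50% growth inhibition is given as GI50.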 Active and inactive are the calls of the source. Rule as the data show it: active = GI50 up to about 1.1 µM and inactive = higher.

Tests used:
Assay in all cases: inhibition of tumour cell growth, NCI panel, 48 h
NCI-H23 = tested on: NCI-H23
A498 = tested on: A498
HL-60 = tested on: HL-60
MOLT-4 = tested on: MOLT-4
HCT-15 = tested on: HCT-15
SK-MEL-5 = tested on: SK-MEL-5
KM12 = tested on: KM12
NCI-H460 = tested on: NCI-H460
OVCAR-8 = tested on: OVCAR-8
SF-295 = tested on: SF-295
MCF7 = tested on: MCF7
K562 = tested on: K562
SNB-75 = tested on: SNB-75
SK-MEL-2 = tested on: SK-MEL-2
U-251 = tested on: U-251
SNB-19 = tested on: SNB-19
COLO 205 = tested on: COLO 205
OVCAR-3 = tested on: OVCAR-3
Malme-3M = tested on: Malme-3M
EKVX = tested on: EKVX

Measured: GI50

CN(C)CCNC(=O)c1cccc2c1C(=O)c1ccccc1C2=O
inactive: NCI-H23 22 µM | A498 > 100 µM | HL-60 20.6 µM | MOLT-4 20.5 µM | SK-MEL-5 20.5 µM | KM12 > 58.1 µM | NCI-H460 29.6 µM | OVCAR-8 29.4 µM | SF-295 33.7 µM | MCF7 16.2 µM | K562 19.1 µM | SNB-75 > 100 µM | SK-MEL-2 > 37.3 µM | U-251 31.7 µM | SNB-19 28 µM | COLO 205 16 µM | OVCAR-3 19.3 µM | Malme-3M 13.1 µM | EKVX 63.8 µM
30.7 µM: HCT-15

COc1cccc(N2C(=O)C3c4[nH]c5ccc(C)cc5c4C4CCC(C(C)(C)C)CC4C3C2=O)c1 (stereo not given)
inactive: NCI-H23 2.24 µM | A498 > 10 µM | HL-60 1.95 µM | MOLT-4 1.97 µM | SK-MEL-5 7.67 µM | KM12 3.52 µM | NCI-H460 2.21 µM | OVCAR-8 2.58 µM | SF-295 > 10 µM | MCF7 2.99 µM | K562 2.65 µM | SNB-75 2.51 µM | SK-MEL-2 > 10 µM | U-251 3.52 µM | SNB-19 > 10 µM | COLO 205 7.16 µM | OVCAR-3 5.46 µM | Malme-3M > 10 µM | EKVX 4.84 µM
6.35 µM: HCT-15

Nc1ncc2c(n1)-c1ccccc1OC2
> 100 µM: HCT-15
inactive: NCI-H23 > 100 µM | A498 51.2 µM | HL-60 > 100 µM | MOLT-4 > 100 µM | SK-MEL-5 > 100 µM | KM12 > 100 µM | NCI-H460 > 100 µM | OVCAR-8 > 100 µM | SF-295 > 100 µM | MCF7 > 100 µM | K562 > 100 µM | SNB-75 22.6 µM | SK-MEL-2 > 100 µM | U-251 > 100 µM | SNB-19 > 100 µM | COLO 205 > 100 µM | OVCAR-3 > 100 µM | Malme-3M > 100 µM | EKVX 94.4 µM

CC1=CC2c3cccc4[nH]cc(c34)CC2N(C)C1 (stereo not given)
> 100 µM: HCT-15
inactive: NCI-H23 > 100 µM | A498 > 76.6 µM | HL-60 31.6 µM | MOLT-4 > 68.1 µM | SK-MEL-5 > 76.9 µM | KM12 > 100 µM | NCI-H460 56.5 µM | OVCAR-8 > 100 µM | SF-295 53.3 µM | MCF7 95.1 µM | K562 32.7 µM | SNB-75 38.5 µM | SK-MEL-2 > 100 µM | U-251 > 100 µM | SNB-19 > 100 µM | COLO 205 55.6 µM | OVCAR-3 > 100 µM | Malme-3M 30.3 µM | EKVX > 100 µM

COc1cc([C@@H]2c3cc4c(c(O[C@@H]5O[C@H]6CO[C@@H](C)O[C@H]6[C@H](O)[C@@H]5O)c3C[C@H]3COC(=O)[C@@H]32)OCO4)cc(OC)c1O
14.6 µM: HCT-15
inactive: NCI-H23 15.1 µM | A498 4.11 µM | HL-60 4.41 µM | MOLT-4 10.6 µM | SK-MEL-5 5.08 µM | KM12 8.75 µM | NCI-H460 12.1 µM | OVCAR-8 6.64 µM | SF-295 3.48 µM | MCF7 4.15 µM | K562 4.53 µM | SNB-75 5.32 µM | SK-MEL-2 27.3 µM | U-251 8.17 µM | SNB-19 23.7 µM | COLO 205 38.8 µM | OVCAR-3 6.76 µM | Malme-3M > 29.9 µM | EKVX 5.55 µM
